Reference: PubChem BioAssay AID330 (DTP/NCI, 2004)
Where “and” joins values, the source holds several entries; their conditions need not be identical. Equal entries are not always repeated. Toxic doses and inconclusive results are not listed.

Test system: P388 leukemia ip, CD2F1 mice, survival T/C
Assay: NCI In Vivo Anticancer Drug Screen. Data for tumor model P388 Leukemia (intraperitoneal) in CD2F1 (CDF1) mice
Conditions: endpoint: median survival time, higher = longer survival
Summary of the method: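 Mice carrying the transplanted tumor received test compound or vehicle. Survival was recorded in each group, and the value is the treated-group measurement divided by that of the vehicle-treated control group.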

[1] = dose: 50.0 mg/kg/injection, schedule: Q01DX005 (ip), vehicle: Klucel (hydroxypropylcellulose) (HPC)
[2] = dose: 100.0 mg/kg/injection, schedule: Q01DX005 (ip), vehicle: Klucel (hydroxypropylcellulose) (HPC)
[3] = dose: 200.0 mg/kg/injection, schedule: Q01DX005 (ip), vehicle: Klucel (hydroxypropylcellulose) (HPC)
[4] = dose: 100.0 mg/kg/injection, schedule: Q04DX002 (ip), vehicle: saline with Tween-80
[5] = dose: 60.0 mg/kg/injection, schedule: Q01DX005 (ip), vehicle: Klucel (hydroxypropylcellulose) (HPC)
[6] = dose: 120.0 mg/kg/injection, schedule: Q01DX005 (ip), vehicle: Klucel (hydroxypropylcellulose) (HPC)
[7] = dose: 240.0 mg/kg/injection, schedule: Q01DX005 (ip), vehicle: Klucel (hydroxypropylcellulose) (HPC)

Compound: O=c1[nH]c2c(c3c1CCCC3)CC1(CC2)OCCO1
- T/C (dose: 100.0 mg/kg/injection, schedule: Q04DX002 (ip), vehicle: Klucel (hydroxypropylcellulose) (HPC)): 105 % of control
- T/C (dose: 200.0 mg/kg/injection, schedule: Q04DX002 (ip), vehicle: Klucel (hydroxypropylcellulose) (HPC)): 100 % of control
- T/C (dose: 400.0 mg/kg/injection, schedule: Q04DX002 (ip), vehicle: Klucel (hydroxypropylcellulose) (HPC)): 108 % of control

Compound: CN=C(c1ccc(NC(=O)c2cccc(C(=O)Nc3ccc(C(=NC)N(C)C)cc3)c2)cc1)N(C)C
- T/C (dose: 1.56 mg/kg/injection, schedule: Q01DX005 (ip), vehicle: saline): 102 % of control
- T/C (dose: 3.12 mg/kg/injection, schedule: Q01DX005 (ip), vehicle: saline): 102 % of control
- T/C (dose: 6.25 mg/kg/injection, schedule: Q01DX005 (ip), vehicle: saline): 106 % of control and 96 % of control

Compound: C[N+](C)(C)N=P(O)(N[N+](C)(C)C)c1ccccc1 (stereo not given)
- T/C (dose: 60.0 mg/kg/injection, schedule: Q01DX005 (ip), vehicle: saline): 104 % of control
- T/C (dose: 120.0 mg/kg/injection, schedule: Q01DX005 (ip), vehicle: saline): 104 % of control
- T/C (dose: 240.0 mg/kg/injection, schedule: Q01DX005 (ip), vehicle: saline): 103 % of control

Compound: CCOC(=O)C(NC(C)=O)(C(=O)OCC)C(C)C(O)c1ccc(OC)c(OC)c1O (stereo not given)
- T/C (dose: 50.0 mg/kg/injection, schedule: Q01DX009 (ip), vehicle: Klucel (hydroxypropylcellulose) (HPC)): 108 % of control
- T/C (dose: 100.0 mg/kg/injection, schedule: Q01DX009 (ip), vehicle: Klucel (hydroxypropylcellulose) (HPC)): 103 % of control
- T/C (dose: 200.0 mg/kg/injection, schedule: Q01DX009 (ip), vehicle: Klucel (hydroxypropylcellulose) (HPC)): 109 % of control
- T/C (dose: 400.0 mg/kg/injection, schedule: Q01DX009 (ip), vehicle: Klucel (hydroxypropylcellulose) (HPC)): 93 % of control

Compound: Cc1ccc(C(=O)N=Nc2c(Cl)c(O)c3ccccc3c2O)cc1
- T/C [1]: 103 % of control
- T/C [2]: 99 % of control
- T/C [3]: 103 % of control

Compound: COC(=O)c1c(C(N)=O)c(C)n(NC(=O)c2ccccc2)c1C
- T/C (dose: 60.0 mg/kg/injection, schedule: Q01DX005 (ip), vehicle: saline with Tween-80): 95 % of control
- T/C (dose: 120.0 mg/kg/injection, schedule: Q01DX005 (ip), vehicle: saline with Tween-80): 93 % of control
- T/C (dose: 240.0 mg/kg/injection, schedule: Q01DX005 (ip), vehicle: saline with Tween-80): 94 % of control

Compound: Cn1c(=O)c2c(c3cc(O)ccc31)OC(C(C)(C)O)C2 (stereo not given)
- T/C [1]: 95 % of control
- T/C [2]: 96 % of control
- T/C [3]: 86 % of control

Compound: N#Cc1c(C#N)c(O)c2c(N)cccc2c1O
- T/C [4]: 105 % of control
- T/C (dose: 200.0 mg/kg/injection, schedule: Q04DX002 (ip), vehicle: saline with Tween-80): 108 % of control

Compound: COc1cc(O)cc2c1C(=O)C(C)O2 (stereo not given)
- T/C [5]: 101 % of control
- T/C [6]: 101 % of control
- T/C [7]: 91 % of control

Compound: O=C1CSC(c2ccc(O)c(O)c2)N1c1nncs1 (stereo not given)
- T/C (dose: 25.0 mg/kg/injection, schedule: Q04DX002 (ip), vehicle: saline with Tween-80): 96 % of control
- T/C (dose: 50.0 mg/kg/injection, schedule: Q04DX002 (ip), vehicle: saline with Tween-80): 100 % of control
- T/C [4]: 98 % of control

Compound: C=Cn1ccnc1C(O)(c1ccc(Cl)cc1)c1ccc(Cl)cc1
- T/C (dose: 50.0 mg/kg/injection, schedule: Q01DX009 (ip), vehicle: saline with Tween-80): 92 % of control and 94 % of control
- T/C (dose: 100.0 mg/kg/injection, schedule: Q01DX009 (ip), vehicle: saline with Tween-80): 100 % of control and 94 % of control
- T/C (dose: 200.0 mg/kg/injection, schedule: Q01DX009 (ip), vehicle: saline with Tween-80): 94 % of control
- T/C (dose: 400.0 mg/kg/injection, schedule: Q01DX009 (ip), vehicle: saline with Tween-80): 95 % of control and 98 % of control

Compound: COC(=O)[C@@]12OC[C@]34[C@H]([C@@H](O)[C@@H]1O)[C@@]1(C)CC(=O)C(O)=C(C)[C@@H]1C[C@H]3OC(=O)[C@H](OC(=O)/C=C(\C)C(C)C)[C@@H]24
- T/C (dose: 0.03 mg/kg/injection, schedule: Q01DX009 (ip), vehicle: saline + alcohol): 108 % of control
- T/C (dose: 0.06 mg/kg/injection, schedule: Q01DX009 (sc), vehicle: saline + alcohol): 107 % of control
- T/C (dose: 0.06 mg/kg/injection, schedule: Q03HX024 (ip), vehicle: saline + alcohol): 152 % of control
- T/C (dose: 0.13 mg/kg/injection, schedule: Q01DX009 (ip), vehicle: saline with Tween-80): 160 % of control
- T/C (dose: 0.13 mg/kg/injection, schedule: Q01DX009 (sc), vehicle: saline + alcohol): 108 % of control
- T/C (dose: 0.13 mg/kg/injection, schedule: Q03HX024 (ip), vehicle: saline + alcohol): 151 % of control
- T/C (dose: 0.25 mg/kg/injection, schedule: Q01DX009 (ip), vehicle: distilled water + Tween-80): 155 % of control and 177 % of control
- T/C (dose: 0.25 mg/kg/injection, schedule: Q01DX009 (ip), vehicle: saline with Tween-80): 156 % of control
- T/C (dose: 0.25 mg/kg/injection, schedule: Q01DX009 (sc), vehicle: saline + alcohol): 106 % of control
- T/C (dose: 0.25 mg/kg/injection, schedule: Q03HX024 (ip), vehicle: saline + alcohol): 164 % of control
- T/C (dose: 0.38 mg/kg/injection, schedule: Q01DX009 (ip), vehicle: saline + Tween-80 + alcohol): 155 % of control
- T/C (dose: 0.5 mg/kg/injection, schedule: Q01DX009 (ip), vehicle: distilled water + Tween-80): 155 % of control and 185 % of control
- T/C (dose: 0.5 mg/kg/injection, schedule: Q01DX009 (ip), vehicle: saline with Tween-80): 169 % of control
- T/C (dose: 0.5 mg/kg/injection, schedule: Q01DX009 (oral), vehicle: saline + alcohol): 102 % of control
- T/C (dose: 0.5 mg/kg/injection, schedule: Q01DX009 (sc), vehicle: saline + alcohol): 110 % of control
- T/C (dose: 0.5 mg/kg/injection, schedule: Q08DX002 (ip), vehicle: saline + alcohol): 101 % of control
- T/C (dose: 1.0 mg/kg/injection, schedule: Q01DX001 (ip), vehicle: saline + alcohol): 111 % of control
- T/C (dose: 1.0 mg/kg/injection, schedule: Q01DX001 (sc), vehicle: saline + alcohol): 109 % of control
- T/C (dose: 1.0 mg/kg/injection, schedule: Q01DX005 (ip), vehicle: water): 155 % of control
- T/C (dose: 1.0 mg/kg/injection, schedule: Q01DX009 (ip), vehicle: distilled water + Tween-80): 158 % of control and 166 % of control
- T/C (dose: 1.0 mg/kg/injection, schedule: Q01DX009 (ip), vehicle: saline with Tween-80): 185 % of control
- T/C (dose: 1.0 mg/kg/injection, schedule: Q01DX009 (oral), vehicle: saline + alcohol): 104 % of control
- T/C (dose: 1.0 mg/kg/injection, schedule: Q08DX002 (ip), vehicle: saline + alcohol): 100 % of control
- T/C (dose: 2.0 mg/kg/injection, schedule: Q01DX001 (ip), vehicle: saline + alcohol): 116 % of control
- T/C (dose: 2.0 mg/kg/injection, schedule: Q01DX001 (sc), vehicle: saline + alcohol): 115 % of control
- T/C (dose: 2.0 mg/kg/injection, schedule: Q01DX009 (ip), vehicle: saline with Tween-80): 209 % of control
- T/C (dose: 2.0 mg/kg/injection, schedule: Q01DX009 (oral), vehicle: saline + alcohol): 104 % of control
- T/C (dose: 2.0 mg/kg/injection, schedule: Q08DX002 (ip), vehicle: saline + alcohol): 102 % of control
- T/C (dose: 4.0 mg/kg/injection, schedule: Q01DX001 (ip), vehicle: saline + alcohol): 120 % of control
- T/C (dose: 4.0 mg/kg/injection, schedule: Q01DX001 (oral), vehicle: saline + alcohol): 106 % of control
- T/C (dose: 125.0 micrograms/kg/injection, schedule: Q01DX009 (ip), vehicle: saline + alcohol): 124 % of control
- T/C (dose: 250.0 micrograms/kg/injection, schedule: Q01DX009 (ip), vehicle: saline + alcohol): 155 % of control
- T/C (dose: 500.0 micrograms/kg/injection, schedule: Q01DX009 (ip), vehicle: saline + alcohol): 171 % of control
- T/C (dose: 1000.0 micrograms/kg/injection, schedule: Q01DX009 (ip), vehicle: saline + alcohol): 160 % of control and 197 % of control
- T/C (dose: 2000.0 micrograms/kg/injection, schedule: Q01DX009 (ip), vehicle: saline + alcohol): 152 % of control

Compound: CCOC(=O)c1ccc(NC(=O)N2CCCCC2C)cc1 (stereo not given)
- T/C [5]: 104 % of control
- T/C [6]: 89 % of control
- T/C [7]: 97 % of control

Compound: COc1ccc(C(=O)CC(=O)C(=O)Nc2ccc(Cl)cc2)cc1
- T/C (dose: 50.0 mg/kg/injection, schedule: Q01DX005 (ip), vehicle: saline with Tween-80): 103 % of control
- T/C (dose: 100.0 mg/kg/injection, schedule: Q01DX005 (ip), vehicle: saline with Tween-80): 101 % of control
- T/C (dose: 200.0 mg/kg/injection, schedule: Q01DX005 (ip), vehicle: saline with Tween-80): 109 % of control
